Experimental data: patent US20130085146A1, “LIPID-DRUG FORMULATIONS AND METHODS FOR TARGETED DELIVERY OF LIPID-DRUG COMPLEXES TO LYMPHOID TISSUES” (priority 2003, published 2013)
“Also recorded” adds a separate entry of the source. Read-outs that look alike come from different tables or passages of the source.

Columns and labels:
[1] = system: HIV-2287; assay: microbe, parasite or virus in culture; type: cell-based, HIV-2
Experimental: (§1) The effective concentrations that produce half the maximum anti-HIV activity (EC50) were determined based on non-linear regression of each set of data, representing the frequency of replication.
After incubating the cells at 37° C. in RPMI 1640 containing 10% fetal calf serum for 4 days (optimum detection time), the presence of virus-infected cells was determined visually by the presence of syncytia and was subsequently confirmed by ELISA detection of the presence of HIV-2 antigen. Experiments were repeated on at least two different days with each determination done in quadruplicate samples, and the data presented in FIG. 3 are the mean % virus-infected cells.

[2] = system: HIV-2287; assay: In situ hybridization of lymph node sections for HIV-2 RNA; type: in vivo, Macaca nemestrina; conditions: for viral RNA in lymph nodes: 20 mg/kg for 14 days, necropsy day 20
Experimental: Histological analysis of HIV-infected cells: Histologic sections of lymph node were examined using in situ hybridization for HIV-2 gag RNA. Biopsy and postmortem tissues were preserved in fresh 4% deionized paraformaldehyde, embedded in paraffin wax, and sectioned to 5 μm. The sections were deparaffinized, rehydrated in Tris-buffered saline (TBS; 0.1 M Tris [pH 7.5], 0.1 M NaCl), digested with proteinase K (20-40 μg/ml, 37° C., for 30-50 min; Sigma), and treated overnight at 37° C. in a RNase-free DNase-1 solution (Boehringer Mannheim), as described previously.
The sections were then incubated for 5 min at 70° C. followed by 4 h at 42° C. with antisense RNA probes directed either to SW (strain mac251; Zhang Z Q, Schuler T, Cavert W, et al. Reversibility of the pathological changes in the follicular dendritic cell network with treatment of HIV-1 infection. Proc Nati Acad Sci U S A 1999;96 (9):5169-72) or HIV-2 gag-pol (stain 287; gag 2639-1080, pol 3473-2306; Galabru J, Rey-Cuille M A, Hovanessian A G. Nucleotide sequence of the HIV-2 EHO genome, a divergent HIV-2 isolate. AIDS Res Hum Retroviruses 1995;11 [7]:873-4). The RNA probes were constructed by cloning cDNA into transcription vectors under the control of T7 and SP6 RNA polymerase promoters (pGEM, Promega; Madison, Wis.). […] HIV-2 RNA was detected after autoradiographic exposures of 24 and 96 h.
The presence of viral RNA was indicated by deposition of silver grains on top of cells or as aggregates within lymph node germinal centers (FIG. 7) at a frequency statistically greater than background, as determined using Image-Pro® Plus software (Media Cybernetics, Silver Spring, Md.). Nonspecific background was determined in two ways with equivalent results. Silver grains were counted over 100 germinal center cells in tissue sections from mock-inoculated uninfected animals after hybridization to the HIV-2 or SIV antisense probe, or over cells from the tissues of infected monkeys after hybridization to noncomplimentary ‘sense’ RNA probes. […]

[3] = system: HIV-2287; type: in vivo, Macaca nemestrina; conditions: for CD4+ T cell, After: after therapy; for CD4+ T cell, After / CD4+ T cell, Before: SC 22 mg/kg daily, 14 doses; for CD4+ T cell, Before: before therapy
Experimental: Total RNA was isolated from plasma and lymphoid tissues using a Purescript RNA Isolation Kit (Gentra Systems, Minneapolis, Minn.). Viral RNA was measured using a quantitative, internally-controlled RNA PCR to estimate the number of HIV-2 copies/ml of sample (Watson A, Ranchalis J, Travis B, et al., Plasma viremia in macaques infected with simian immunodeficiency virus: plasma viral load early in infection predicts survival, J Virol 1997;71 (1):284-90) for some of the experiments and real-time quantitative PCR. The two methods have been validated to ensure consistency in estimating viral RNA concentration in plasma and tissues. Briefly, reverse transcription and PCR were performed as described. Because semi-quantitative methods have been well-documented (Watson, et al., 1997), only details on RT-QPCR are described below.
Lymphocyte subset analysis: Fluorescent labeled monoclonal antibodies to lymphocyte surface markers were used to quantitate populations of T cells (CD2+), helper T cells (CD4^+), suppressor T cells (CD8^+), and B cells (CD20^+) in maternal (1 ml) and fetal (150 μl) blood using procedures previously described (Ho R J, Agy M B, Morton W R, et al. Development of a chronically catheterized maternal-fetal macaque model to study in utero mother-to-fetus HIV transmission: a preliminary report. J Med Primatol 1996;25 (3):218-24).
Plasma cholesterol level was monitored to evaluate the effects of cholesterol given as a part of lipid formulation.

[4] = SC 10 mg/kg single dose
Experimental: These samples were resuspended in 100 μL, and a 10 μL sample was injected onto an RX-C8 column (21 mm×15 cm column) and eluted isocratically with a mobile phase containing 20 mM ammonium acetate in acetonitrile:water (65:35, v/v) running at 0.38 ml/min. […] Under these conditions, the detection limit was 100 pg, which made it possible to measure drug levels, extract RNA and DNA, isolate cells for detailed analyses of vRNA and vDNA-infected cells in lymph nodes, and fix the tissue for pathological analyses from limited sample size.

[5] = Indinavir accumulation in lymph nodes after oral free indinavir; type: in vivo, macaques; conditions: macaque; for Kp at […]: po, 25 mg/kg; for Kp at […] / Kp at 2 hr / Kp at 3.75 hr: read-out: Lymph node to plasma ratio; for Kp at 2 hr / Kp at 3.75 hr: oral 25 mg/kg; for Kp at 2 hr / concentration at 2 hr: animal 94094; for Kp at 3.75 hr / concentration at 3.75 hr: animal 94096; for concentration at 2 hr / concentration at 3.75 hr: oral 25 mg/kg in solution
[6] = Particle size of lipid-drug complex (photon correlation spectroscopy); type: physicochemical; conditions: drug associated with lipid membranes, pH 7.4
Experimental: (§2) The mixture was rotor-evaporated under N2 and reduced pressure. Then it was resuspended in sterile phosphate-buffered saline (PBS, pH 7.4), to a final lipid concentration of 50 mM, and homogenized with a probe sonicator until a uniform particle size of about 50 nm to about 80 nm diameter was reached. Sonication is preferably done until sonicated unilamellar vesicles that are stable at their minimum diameter are obtained. […] The size and zeta potential (surface potential at hydrodynamic plane) of the lipid-drug complex was monitored using a Malvern Zetasizer 5000 operating at photon correlation spectroscopy mode and electrophoretic mode, respectively. […] The rest of the preparation procedure remains the same.

[7] = Example 10; SC 20 mg/kg/day, two animals
[8] = system: HIV-1LAV; assay: Inhibition of HIV-1LAV replication in human PBMCs (p24 antigen); type: cell-based; conditions: Human immunodeficiency virus 1, PBMC
Experimental: as §1

[9] = Degree of drug incorporation into lipid-drug complex (size-exclusion chromatography); type: physicochemical
Experimental: as §2
The degree of drug incorporation into the lipid-drug complex was determined by subjecting a small fraction of the preparation to size-exclusion chromatography using a Biogel A-0.5 M media (1×10 cm). […] By analyzing the amount of fraction in the lipid-associated complex, and free form with respect to the total amount loaded onto the column, the percentage of drug association was determined. (Lian, T. and Ho, R. J. Y., Recent trend and progress in liposome drug delivery systems; an invited minireview, J Pharm Sci 90:667-680 [2001]). To determine pH-dependent drug dissociation from the lipid-drug complex, the lipid-drug complex (originally prepared in pH 7.4 and free of unincorporated drug) can be incubated at, e.g., pH 7, 6, 5.5, 5, 4, 3.5 for 30 min. Subsequently, the mixture can be subjected to the degree of drug incorporation analysis described above. For animal studies, the drug-lipid complex formulations were further analyzed for sterility and endotoxin contamination. To ensure sterility and prevent underestimation of endotoxin that binds to lipids, the lipid-drug complex preparations were subjected to a blood agar culture test for 7 days at 37° C. for detection of microbial contamination.
Subsequently, the % lipid-association was determined by separating free from lipid-associated drug by size-exclusion column chromatography. Data expressed were means of duplicate preparations for indicated pH value.

[10] = cited from earlier work
[11] = axillary lymph node / plasma, axillary
[12] = inguinal lymph node / plasma, inguinal

In the case of `CC(C)(C)NC(=O)[C@@H]1CN(Cc2cccnc2)CCN1C[C@@H](O)C[C@@H](Cc1ccccc1)C(=O)N[C@H]1c2ccccc2C[C@H]1O` [Indinavir, N-(2(R)-hydroxy-1(S)-indanyl)-2(R)-phenylmethyl-4-(S)-hydroxy-5-(1-(4-(3-pyridyl-methyl)-2(S)-N′-(t-butylcarboxamido)-piperazinyl))-pentaneamide], the EC50 ([1]; Human immunodeficiency virus 2, CEM174, 96 h, read-out: EC50 (50% effective inhibitory concentration)) is reported as 50 to 80 nM, the EC50 ([1]; Human immunodeficiency virus 2, CEM174, read-out: in vitro ED50 against HIV-2287) is reported as 60 to 80 nM and the “HIV-2 RNA in lymph node germinal centers (in words)” value ([2]; axillary and mesenteric lymph nodes) is reported as “showed aggregates of HIV-RNA in lymph node germinal centers”. The “viral RNA in lymph nodes” value ([2]; macaque 215) was 13,290±1,450 gag-pol RNA copies/50× field, the “viral RNA in lymph nodes” value ([2]; macaque 283) was 8,134±890 gag-pol RNA copies/50× field and the plasma virus load ([3]; Example 10: SC 20 mg/kg/day for 14 days, 30 weeks post-infection) was “did not exhibit a significant virus load reduction”. For the same compound, the “CD4+ T cells after two weeks of treatment (in words)” value ([3]; four HIV-2287-infected animals, Table 5) was “the same pattern was not observed”, the “CD4+ T cell, After” value ([3]; macaque 215) was 1473 per μL and the “CD4+ T cell, Before” value ([3]; macaque 215) was 1946 per μL. For the same compound, the “CD4+ T cell, After” value ([3]; macaque 283) was 1051 per μL, the “CD4+ T cell, Before” value ([3]; macaque 283) was 1650 per μL and the “time of plasma drug concentration peak” value [4] was 0.5 to 1 h. It also gave a Kp at […] ([5]; axillary lymph node / plasma) of 0.01, a Kp at 2 hr [5, 11] of 0.02 and a Kp at 3.75 hr [5, 11] of 0.0035. For the same compound, the concentration at 2 hr ([5]; axillary lymph node, axillary) was 0.084 ng/mL, the concentration at 3.75 hr ([5]; axillary lymph node, axillary) was 0.141 ng/mL and the Kp at […] ([5]; inguinal lymph node / plasma) was 0.03. It also gave a Kp at 2 hr [5, 12] of 0.01, a Kp at 3.75 hr [5, 12] of 0.01 and a concentration at 2 hr ([5]; inguinal lymph node, inguinal) of 0.056 ng/mL. For the same compound, the concentration at 3.75 hr ([5]; inguinal lymph node, inguinal) was 0.481 ng/mL, the concentration at 2 hr ([5]; plasma) was 5.2 ng/mL and the concentration at 3.75 hr ([5]; plasma) was 39.8 ng/mL. For the same compound, the “Size in Diameter” value [6] was 69 ± 7 nm, the “time by which drug levels subsided below detectable levels” value [7] was 4 to 5 h and the EC50 ([8]; CD8-depleted human PBMCs, HIV-1 p24 antigen) was greater than 150 nM. For the same compound, the inhibition at 15 µM ([8]; at 15 μM) was less than 100%, the “% Associated with lipid-drug nanoparticles: Indinavir” value ([9]; DSPC:mPE-DSPE formulation) was 97.5 ± 2.50% and the “Degree of Lipid Association (% total)” value ([9]; drug associated with lipid membranes, pH 7.4) was 97.5 ± 2.5 % total. The “incorporation into lipid-drug complexes (in words)” value ([9]; neutral pH) was “completely or nearly completely; also recorded: incorporate nearly completely”, the “indinavir preparation incorporated in lipid-indinavir complex” value ([9]; neutral pH, lipid-to-drug molar ratio about 5:1 to about 10:1) was 80-100% and the “drug incorporated into the lipid bilayer of liposomes” value ([9]; pH 4, lipid-to-drug ratio 5:1 (m/m)) was less than 30%. For the same compound, the “drug associated with liposome” value ([9]; pH 7.4, lipid-to-drug ratio 5:1 (m/m)) was 85-95%, the “LogP (lipophilicity)” value ([10]; pH 3.5) was 0 and the “LogP (lipophilicity)” value ([10]; pH 5) was 1.8. The “LogP (lipophilicity)” value ([10]; pH 7) was 3.
